The values that follow come from patent US20030225081A1, “Pyridazinones and triazinones and medicinal use thereof” (priority 2000, published 2003).

pIC50: −log10 of the molar value.

In test [1] the test system is convulsion induced by AMPA. Description: Anticonvulsant action induced by AMPA. The format is in vivo, mice of ddy strain. The settings on record: 25 mg/kg orally, mice; AMPA injected into lateral ventricle 30 minutes or 1 hour after administration. On the procedure: Anticonvulsant Action Induced by AMPA A test compound was suspended in a 0.5% methyl cellulose solution or in sesame oil and was orally administered (25 mg/kg) to male mice of ddy strain. After 30 minutes or 1 hour from the oral administration, AMPA was continuously injected ([…]/5 μl/minute/mouse) into lateral ventricle to induce the convulsions. The effect was judged by a time-extending action until the convulsion takes place by a continuous injection of AMPA.

Another test deals with AMPA receptor. Description: Suppressing action to calcium influx into nerve cells induced by AMPA. The format is cell-based. The settings on record: Fura2-AM, stimulation with 2 μM AMPA, primary culture of rat embryo cerebral cortex nerve cells, 1 μM MK-801. The method in brief:
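Rat E18 cortical neurons grown on astrocyte feeder layers for 8–10 days or more, with 1 μM MK-801 in the medium. Cells were Fura2-AM-loaded for 1 h, then stimulated with 2 μM AMPA in Tyrode containing 1 μM MK-801. Calcium influx was read as the 340/380 nm excitation fluorescence change.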

Turning to `O=c1c(-c2cccnc2)cc(-c2ccccn2)nn1-c1ccccc1` [Example 59, 2-Phenyl-4-(3-pyridyl)-6-(2-pyridyl)-3 (2H)-pyridazinone], the “anticonvulsant action (time-extending action until the convulsion takes place)” value (shortened to “anticonvulsant action”) in test [1] is listed as “significantly inhibited the convulsion induced by AMPA”. Further, the pIC50 in the test on AMPA receptor is 6.22.

As to `O=C1C(c2ccccc2O)CC(c2ccccn2)=NN1c1ccccc1Br` (stereo not drawn) [Example 29, 2-(2-Bromophenyl)-4-(2-hydroxyphenyl)-6-(2-pyridyl)-4,5-dihydro-3 (2H)-pyridazinone], in test [1], the “anticonvulsant action” value is listed as “significantly inhibited the convulsion induced by AMPA”. The pIC50 with AMPA receptor is 7.00.

For the compound `N#Cc1ccccc1N1N=C(c2ccccn2)CN(c2cccnc2)C1=O` [Example 103, 2-(2-Cyanophenyl)-6-(2-pyridyl)-4-(3-pyridyl)-4,5-dihydro-1,2,4-triazin-3 (2H)-one], the “anticonvulsant action” value in test [1] is listed as “significantly inhibited the convulsion induced by AMPA”. Further, the negative-log IC50 (pIC50) in the test on AMPA receptor is 7.00.

For `N#Cc1ccccc1-n1nc(-c2ccccn2)cc(-c2cccnc2)c1=O` [Example 45, 2-(2-Cyanophenyl)-4-(3-pyridyl)-6-(2-pyridyl)-3 (2H)-pyridazinone], in test [1], the “anticonvulsant action” value is listed as “significantly inhibited the convulsion induced by AMPA”. Also, in the test on AMPA receptor, the pIC50 was 6.70.

As to `N#Cc1ccccc1-n1nc2c(c(-c3cccnc3)c1=O)COc1ccccc1-2` [Example 9, 2-(2-Cyanophenyl)-4-(3-pyridyl)-2,3-dihydro-5H-(1)benzopyrano[4,3-c]pyridazin-3-one], the “anticonvulsant action” value in test [1] is listed as “significantly inhibited the convulsion induced by AMPA”. Besides, in the test with AMPA receptor, the pIC50 is 7.70.

As to `N#Cc1ccccc1N1N=C(c2ccccn2)CN(c2ccccn2)C1=O` [Example 102, 2-(2-Cyanophenyl)-6-(2-pyridyl)-4-(2-pyridyl)-4,5-dihydro-1,2,4-triazin-3 (2H)-one], the “anticonvulsant action” value in test [1] was “significantly inhibited the convulsion induced by AMPA”. Also, in the test with AMPA receptor, the pIC50 was 7.00.

On to `N#Cc1ccccc1N1N=C(c2ccccn2)CN(c2ccccc2)C1=O` [Example 100, 2-(2-Cyanophenyl)-4-phenyl-6-(2-pyridyl)-4,5-dihydro-1,2,4-triazin-3 (2H)-one], for which the “anticonvulsant action” value in test [1] was “significantly inhibited the convulsion induced by AMPA”. The pIC50 in the test on AMPA receptor was 7.30.

As to `COc1ccccc1C1=NN(c2ccccc2C#N)C(=O)N(c2ccccc2)C1` [Example 97, 2-(2-Cyanophenyl)-6-(2-methoxyphenyl)-4-phenyl-4,5-dihydro-1,2,4-triazin-3 (2H)-one], in test [1], the “anticonvulsant action” value is “significantly inhibited the convulsion induced by AMPA”. Moreover, in the test on AMPA receptor, the pIC50 is 6.15.

For `O=C1N(c2ccccc2)CC(c2ccccn2)=NN1c1ccccc1Br` [Example 88, 2-(2-Bromophenyl)-4-phenyl-6-(2-pyridyl)-4,5-dihydro-1,2,4-triazin-3 (2H)-one], the “anticonvulsant action” value in test [1] was “significantly inhibited the convulsion induced by AMPA”. Further, the pIC50 in the test with AMPA receptor was 7.00.
